Consider 8 molecules from publication PMC9701195, “Structural basis for lipid and copper regulation of the ABC transporter MsbA” (Nature Communications, 2022).

Series [1] addresses T1, MsbA (Escherichia coli, UniProt P60752).
T1 construct: full length, TEV-cleavable N-terminal His6 tag cut (intact native N-terminus MHND...), expressed in E. coli BL21-AI, delipidated, homodimer in C10E5
As to the kind of experiment: biochemical. Also on record: native mass spectrometry lipid titration, sequential lipid binding model, mole fractions of apo and lipid-bound MsbA. To be noted: first lipid; MsbA partially loaded with copper(II); read-out: KD1. As for the experimental part: Lipids were prepared as previously described, in which lipids dissolved in chloroform were dried under nitrogen flow placed under vacuum overnight followed by dissolving in water. The concentration of MsbA was determined using a DC protein assay (BioRad) with bovine serum albumin as the standard. MsbA was incubated with lipids at varying concentrations and mixed with 200 mM ammonium acetate supplemented with 2x CMC lauryldimethylamine oxide (LDAO) at 1:1 volume ratio. Samples were incubated in the nano electrospray ionization source chamber for a minute to reach equilibrium prior to data acquisition. These samples analyzed on Orbitrap Exactive Plus EMR mass spectrometer (Thermo Scientific) operating at identical settings as described above. The mass spectra for each titration event were obtained in triplicate. The mass spectra were deconvoluted using UniDec[55] and the resulting peak intensities for apo and lipid-bound protein were determined. The relative abundance for each species was determined by dividing the peak intensity by the total intensity to convert to mole fraction for each independent experiment. For MsbA (P) binding the N^th lipid (Ln), we applied the following sequential lipid binding model: PLn−1+L⇔KAPLn where: KAn=PLn/[PLn−1]L To better understand MsbA-lipid interactions, we determined equilibrium binding constants for MsbA binding to different lipids. For these studies, we selected 1,1′,2,2′-tetraoleoyl-cardiolipin (TOCDL, 72:4) or phosphatidic acid (PA), phosphatidylcholine (PC), phosphatidylethanolamine (PE), phosphatidylglycerol (PG), and phosphatidylserine (PS) containing the acyl chain composition, 1-palmitoyl-2-oleoyl (PO, 16:0-18:1). We also included 3-deoxy-D-manno-oct-2-ulosonic acid (Kdo)2-lipid A (KDL), an LPS precursor known to stimulate MsbA ATPase activity[22]–[24]. Except for PC, these lipids are found in E. coli[40]. MsbA partially and fully loaded with copper(II) was titrated with each lipid followed by recording their native mass spectra (Supplementary Figs. 3–6). The mole fractions of apo and lipid bound states of MsbA were extracted from the deconvoluted MS data and used to determine the equilibrium dissociation constant (KDN) for the Nth binding event (Supplementary Tables 4–5). […] The two tightest binding lipids for MsbA loaded with copper(II) were TOCDL (KD1 = 1.6 µM) and KDL (KD1 = 0.6 µM). POPG binding affinities were largely independent of the copper(II) bound state of MsbA. […] For MsbA with reduced copper(II) binding, additional 1 mM MgCl2 was added to all buffer and MsbA solution in the purification step using Ni-NTA beads. Copper(II) saturated MsbA was obtained by adding 20 uM copper (II) acetate then buffer exchanged using Bio-Spin column to remove excess copper(II). […]

The target in series [2] is T1, MsbA. The experiment in a line: biochemical. The note with it: first lipid; MsbA trapped with ADP and VO4, open outward-facing; read-out: KD1. Also on record: native mass spectrometry lipid titration of ADP-trapped open outward-facing MsbA, sequential lipid binding model. As for the experimental part: Lipids were prepared as previously described, in which lipids dissolved in chloroform were dried under nitrogen flow placed under vacuum overnight followed by dissolving in water. The concentration of MsbA was determined using a DC protein assay (BioRad) with bovine serum albumin as the standard. MsbA was incubated with lipids at varying concentrations and mixed with 200 mM ammonium acetate supplemented with 2x CMC lauryldimethylamine oxide (LDAO) at 1:1 volume ratio. Samples were incubated in the nano electrospray ionization source chamber for a minute to reach equilibrium prior to data acquisition. These samples analyzed on Orbitrap Exactive Plus EMR mass spectrometer (Thermo Scientific) operating at identical settings as described above. The mass spectra for each titration event were obtained in triplicate. The mass spectra were deconvoluted using UniDec[55] and the resulting peak intensities for apo and lipid-bound protein were determined. The relative abundance for each species was determined by dividing the peak intensity by the total intensity to convert to mole fraction for each independent experiment. For MsbA (P) binding the N^th lipid (Ln), we applied the following sequential lipid binding model: PLn−1+L⇔KAPLn where: KAn=PLn/[PLn−1]L To determine the impact of MsbA conformation on lipid binding affinity, analogous experiments were performed using MsbA trapped in an open, OF conformation with adenosine diphosphate (ADP) and [compound left out] (VO4). […] For example, in the presence of 0.4 μM of KDL, [compound left out]-trapped MsbA binds up to two lipids whereas the non-trapped protein binds only one KDL (Fig. 3b–c). […] The binding of POPC and POPE are reminiscent of that for MsbA partially loaded with copper(II). […] For MsbA with reduced copper(II) binding, additional 1 mM MgCl2 was added to all buffer and MsbA solution in the purification step using Ni-NTA beads. Copper(II) saturated MsbA was obtained by adding 20 uM copper (II) acetate then buffer exchanged using Bio-Spin column to remove excess copper(II). MsbA trapped by [compound left out] was obtained by adding ATP and MgCl2 to MsbA to reach the final concentration of 10 mM for both then incubating at room temperature for 10 min. After incubation, [compound left out] (pH 10) was added to reach final concentration of […] followed by incubation at 37 °C for 10 min. MsbA samples was buffer exchanged using Bio-Spin column to 200 mM ammonium acetate supplemented with 2x CMC C10E5 for native MS studies. To prepare MsbA samples for Cryo-EM studies, MsbA and trapped MsbA were preloaded with copper(II) then purified by Superdex 200 Increase 10/300 GL size exclusion column equilibrated with 200 mM NaCl, 20 mM HEPES and 2x CMC C10E5 without glycerol. […]

The target of series [3] is T1, MsbA. As to the kind of experiment: cryoEM structure […] Å and native MS. To be noted: outward-facing, with KDL and copper(II), NBD site. In kind it is binding.
Series [4] deals with the molecule itself. The experiment in a line: native MS; MsbA in 200 mM ammonium acetate with 2x CMC C10E5; Orbitrap Exactive Plus EMR; partially or fully copper(II)-loaded, also trapped with ADP and vanadate.

Where two headings read alike, the source gives them in different places.

T1 sequence (P60752 whole entry): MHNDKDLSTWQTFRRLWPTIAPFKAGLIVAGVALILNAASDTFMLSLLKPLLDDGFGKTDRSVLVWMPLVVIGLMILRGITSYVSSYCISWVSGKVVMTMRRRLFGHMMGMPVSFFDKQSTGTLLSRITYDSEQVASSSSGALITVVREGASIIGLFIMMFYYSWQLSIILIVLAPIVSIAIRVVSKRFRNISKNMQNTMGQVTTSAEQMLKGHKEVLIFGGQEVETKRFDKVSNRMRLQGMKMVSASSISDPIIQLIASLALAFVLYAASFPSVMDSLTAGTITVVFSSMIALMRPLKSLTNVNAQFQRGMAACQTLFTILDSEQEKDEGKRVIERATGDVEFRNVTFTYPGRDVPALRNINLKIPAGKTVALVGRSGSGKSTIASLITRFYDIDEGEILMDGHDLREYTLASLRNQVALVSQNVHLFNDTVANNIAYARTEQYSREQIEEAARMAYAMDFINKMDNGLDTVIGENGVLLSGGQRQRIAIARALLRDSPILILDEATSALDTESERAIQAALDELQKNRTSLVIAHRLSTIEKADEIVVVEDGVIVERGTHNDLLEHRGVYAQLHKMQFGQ

For the molecule `CCCCCCCC/C=C\CCCCCCCC(=O)O[C@H](COC(=O)CCCCCCCCCCCCCCC)COP(=O)(O)O` [POPA], the Kd was 14.7 ± 1.5 µM in series [1] and 2.2 ± 0.01 µM in series [2].

`CCCCCCCC/C=C\CCCCCCCC(=O)O[C@H](COC(=O)CCCCCCCCCCCCCCC)COP(=O)(O)OCCN` [POPE]: the Kd in series [1] came to 12.4 ± 0.7 µM.

With `Nc1ncnc2c1ncn2[C@@H]1O[C@H](COP(=O)(O)OP(=O)(O)O)[C@@H](O)[C@H]1O` [ADP], in series [3] (vanadate-trapped), the “cryoEM structure 3.6 Å and native MS” value is recorded as “there is clear density for ADP·VO4 in the NBDs”.

As to `CCCCCCCC/C=C\CCCCCCCC(=O)O[C@H](COC(=O)CCCCCCCCCCCCCCC)COP(=O)([O-])OCC[N+](C)(C)C` [POPC], the Kd stood at 20.4 ± 1.4 µM in series [1] and 15.1 ± 0.5 µM in series [2].

With `[O]=[V]([OH])([OH])[OH]` [vanadate], in series [3] (ADP-vanadate-trapped), the “cryoEM structure 3.6 Å and native MS” value is “there is clear density for ADP·VO4 in the NBDs”.

On to `CCCCCCCC/C=C\CCCCCCCC(=O)O[C@H](COC(=O)CCCCCCCCCCCCCCC)COP(=O)(O)OC[C@H](N)C(=O)O` [POPS], for which the Kd in series [2] was 2.3 ± 0.3 µM.

Regarding `CCCCCCCC/C=C\CCCCCCCC(=O)O[C@H](COC(=O)CCCCCCCCCCCCCCC)COP(=O)(O)OCC(O)CO` (some centres unmarked) [POPG], the Kd in series [1] is 4.9 ± 0.4 µM; in series [2], 2.6 ± 0.1 µM.

B1: MsbA (ATP-binding cassette transporter MsbA, Escherichia coli) (natural protein)
chain: HNDKDLSTWQTFRRLWPTIAPFKAGLIVAGVALILNAASDTFMLSLLKPLLDDGFGKTDRSVLVWMPLVVIGLMILRGITSYVSSYCISWVSGKVVMTMRRRLFGHMMGMPVSFFDKQSTGTLLSRITYDSEQVASSSSGALITVVREGASIIGLFIMMFYYSWQLSIILIVLAPIVSIAIRVVSKRFRNISKNMQNTMGQVTTSAEQMLKGHKEVLIFGGQEVETKRFDKVSNRMRLQGMKMVSASSISDPIIQLIASLALAFVLYAASFPSVMDSLTAGTITVVFSSMIALMRPLKSLTNVNAQFQRGMAACQTLFTILDSEQEKDEGKRVIERATGDVEFRNVTFTYPGRDVPALRNINLKIPAGKTVALVGRSGSGKSTIASLITRFYDIDEGEILMDGHDLREYTLASLRNQVALVSQNVHLFNDTVANNIAYARTEQYSREQIEEAARMAYAMDFINKMDNGLDTVIGENGVLLSGGQRQRIAIARALLRDSPILILDEATSALDTESERAIQAALDELQKNRTSLVIAHRLSTIEKADEIVVVEDGVIVERGTHNDLLEHRGVYAQLHKMQFGQ
notes: MsbA, Escherichia coli, UniProt P60752; msbA gene amplified from E. coli genomic DNA into pCDF-1b (pCDF-MsbA), N-terminal TEV-cleavable His6; Homodimer; co-purifies with copper(II), one site per subunit at the N-terminus (Met-His-Asn-Asp); For cryo-EM it was loaded with copper(II), apo or trapped with ADP-vanadate, with KDL; also called wild-type MsbA; the transporter; source: E. coli (DE3) …
In the case of B1, the “stoichiometry N” value in series [4] came to 2.
